Data published in patent publication US10590440B2, “Process for producing a fermentation product from a lignocellulose-containing material” (CysBio ApS, priority 2014, dated 2020).

Assays:
Format in all cases: cell-based, Escherichia coli
[1] = tested on: E. coli BL21(DE3)pLysS; experiment: Cell density of E. coli in media with ferulic acid, strain without SULT1A1 (Example 4); conditions: after 17 h at 37° C., inoculated at OD600 0.002
Experimental: (§1) The two strains BL21(DE3)pLysS and the strain carrying SULT1A1 were grown in M9 minimal media with 0.2% glucose, appropriate antibiotics for maintenance of the plasmids, and 0.1 mM IPTG for induction of expression of the sulfotransferase. We added ferulic acid to final concentration of either 2.5 mM or 5 mM (ferulic acid was dissolved in ethanol, which reached a final concentration of 2% in the media). Ferulic acid is a growth inhibitory compound found in lignocellulotic biomass hydrolysate. Cells were inoculated into the medium to an optical density at 600 nm (OD600) of 0.002 in a 1 cm light path. […] Presence of an aryl sulfotransferase removes the inhibition caused by ferulic acid.

[2] = tested on: E. coli BL21(DE3)pLysS carrying SULT1A1; experiment: Cell density of E. coli in media with ferulic acid, strain carrying SULT1A1 Homo sapiens (Example 4); conditions: after 17 h at 37° C., inoculated at OD600 0.002
Description: SULT1A1 from Homo sapiens (SEQ ID NO: 2) mentioned in example 1 was cloned into the plasmid vector pET-28a(+) (Novagen, Life Technologies) as follows: The gene encoding the SULT1A1 was codon optimized for expression in E. coli by GeneArt (LifeTechnologies) and synthesized such that the start codon is an Ncol restriction site. The stop codon is immediately followed by a SalI site. The Ncol and SalI fragment of this DNA piece was cloned into the pET-28a(+) digested with Ncol and SalI using T4 DNA ligase. The resulting plasmid was transformed into E. coli BL21(DE3)pLysS (Life Technologies) selecting for resistance to […] kanamycin.
as §1

[3] = tested on: E. coli MG1655; experiment: Toxicity of unsulfated or sulfated product: growth rate of E. coli MG1655 (Example 3, FIG. 5); conditions: M9 0.2% glucose, pH 7, 37° C.; pHCA 10-40 mM, zosteric acid 20 or 40 mM
Description: All media preparations had been adjusted to pH 7. […] Filled squares represent growth rates in media with pHCA.

| SMILES | Optical density at 600 nm ([1]; 2.5 mM ferulic acid) | Optical density at 600 nm ([1]; 5 mM ferulic acid) | Optical density at 600 nm ([2]; 2.5 mM ferulic acid) | Optical density at 600 nm ([2]; 5 mM ferulic acid) | Toxicity to the cells (growth rates in exponential growth phase) [3] |
| --- | --- | --- | --- | --- | --- |
| COc1cc(/C=C/C(=O)O)ccc1O [ferulic acid] | 0.680 | 0.370 | 1.410 | 1.340 |  |
| O=C(O)/C=C/c1ccc(O)cc1 [pHCA, p-coumaric acid] |  |  |  |  | toxic to the cells |
| O=C(O)/C=C/c1ccc(OS(=O)(=O)O)cc1 [zosteric acid] |  |  |  |  | much less so |
